Assay results from article PMC7411605, “Xanthine Oxidase Inhibition and Anti-LDL Oxidation by Prenylated Isoflavones from Flemingia philippinensis Root” (Molecules, 2020).
Several values for one entry are separate records, joined by “and”; a condition that tells them apart may be missing. Identical values can stand only once. Like-named read-outs stand apart in the source and are kept apart here.

Columns and labels:
[1] = biological target: T1, Bovine milk xanthine oxidase (XO, EC 1.17.3.2) (Bos taurus, UniProt P80457); assay: Xanthine oxidase activity (uric acid formation at 295 nm); type: biochemical; settings: sample concentration which leads to 50% xanthine oxidase activity loss; xanthine substrate, pH 7.5, 37 °C; read-out: IC50, xanthine oxidase inhibition (converted)
T1 construct: Xanthine oxidase from bovine milk (EC 1.17.3.2); purchased Sigma Aldrich Co., (St. Louis, MO, USA); host or cells: bovine milk
T1 sequence (P80457 whole entry): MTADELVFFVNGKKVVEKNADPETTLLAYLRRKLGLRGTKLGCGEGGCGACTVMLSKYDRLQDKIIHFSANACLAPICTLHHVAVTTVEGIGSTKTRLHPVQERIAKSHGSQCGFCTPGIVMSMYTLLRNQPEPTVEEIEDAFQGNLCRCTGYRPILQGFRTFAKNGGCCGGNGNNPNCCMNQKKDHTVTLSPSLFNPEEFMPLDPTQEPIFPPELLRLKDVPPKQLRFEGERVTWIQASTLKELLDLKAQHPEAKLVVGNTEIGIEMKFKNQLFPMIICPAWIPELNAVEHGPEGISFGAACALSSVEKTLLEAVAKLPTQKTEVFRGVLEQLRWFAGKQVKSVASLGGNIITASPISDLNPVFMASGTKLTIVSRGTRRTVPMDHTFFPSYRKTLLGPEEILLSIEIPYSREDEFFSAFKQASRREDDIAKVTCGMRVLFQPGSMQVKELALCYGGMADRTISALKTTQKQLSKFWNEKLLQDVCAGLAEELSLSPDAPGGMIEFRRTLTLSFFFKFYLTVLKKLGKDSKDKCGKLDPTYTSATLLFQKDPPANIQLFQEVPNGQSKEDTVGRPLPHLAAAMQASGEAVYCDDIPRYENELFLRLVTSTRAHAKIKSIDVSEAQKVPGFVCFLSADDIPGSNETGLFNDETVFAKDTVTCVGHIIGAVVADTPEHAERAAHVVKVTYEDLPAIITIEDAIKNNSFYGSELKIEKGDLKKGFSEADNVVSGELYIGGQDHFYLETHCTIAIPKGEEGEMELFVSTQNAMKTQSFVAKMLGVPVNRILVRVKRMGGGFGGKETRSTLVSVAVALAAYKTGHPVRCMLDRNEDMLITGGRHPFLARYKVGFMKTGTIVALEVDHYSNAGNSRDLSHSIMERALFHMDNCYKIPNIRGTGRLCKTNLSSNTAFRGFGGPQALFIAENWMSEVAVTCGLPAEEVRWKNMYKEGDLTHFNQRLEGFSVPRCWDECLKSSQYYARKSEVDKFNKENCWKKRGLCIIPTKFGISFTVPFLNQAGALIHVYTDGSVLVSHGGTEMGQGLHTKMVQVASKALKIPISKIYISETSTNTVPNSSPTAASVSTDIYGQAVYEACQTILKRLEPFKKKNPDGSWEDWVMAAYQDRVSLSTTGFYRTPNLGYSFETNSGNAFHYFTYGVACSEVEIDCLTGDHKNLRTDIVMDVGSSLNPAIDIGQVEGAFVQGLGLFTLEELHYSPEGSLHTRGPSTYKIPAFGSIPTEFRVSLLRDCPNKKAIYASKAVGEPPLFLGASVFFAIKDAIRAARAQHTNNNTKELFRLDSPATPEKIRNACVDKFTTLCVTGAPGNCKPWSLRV
Procedure: The half-maximal inhibitory concentrations (IC50) were calculated according to the enzyme inhibition rate (%) derived from the change of uric acid formation in comparison with the concentration of inhibitors. The inhibition rate derived from the non-linear regression fitting to Equation (1). Inhibition rate (%) = 100 × [(rate of control reaction − rate of inhibitor reaction)/rate of control reaction](1)

[2] = biological target: T1, Bovine milk xanthine oxidase (XO, EC 1.17.3.2); assay: Xanthine oxidase inhibition kinetics (Lineweaver–Burk and Dixon plots); type: biochemical; settings: for Inhibition Mode: Lineweaver–Burk plots, xanthine 15, 30, 60 μM; for KIS: binding of inhibitor to enzyme-substrate complex, secondary plot of intercept
Procedure: The inhibition mode and inhibitory constants were determined by Lineweaver–Burk and Dixon plots. For obtaining double reciprocal plots, was measured the reaction absorbance of the enzyme, inhibited by different concentrations of inhibitors, with three concentrations of xanthine (15, 30, and 60 μM) at 295 nm and 37 °C. The corresponding kinetic parameters, namely the Michaelis-Menten constant (Km), maximal velocity (Vmax), inhibitory constant (Ki), and dissociation constant of a binding site for the inhibitor to either free enzyme or the enzyme-substrate complex (KI and KIS) were determined by Equations (2)–(4).

xanthine oxidase = biological target: T2, xanthine oxidase (Bos taurus, UniProt P80457); assay: Fluorescence quenching of xanthine oxidase (binding affinity); design: species or system bovine; settings: for Stern–Volmer constant KSV / Kd: excitation 290 nm, emission 300-400 nm; for Kd: read-out: binding constant KA (converted); for number of binding sites n: fluorescence quenching
T2 construct: Xanthine oxidase from bovine milk (EC 1.17.3.2); purchased Sigma Aldrich Co., (St. Louis, MO, USA); host or cells: bovine milk
T2 sequence (P80457 whole entry): as above
Procedure: The binding affinity between xanthine oxidase and isolated isoflavones were measured by fluorescence quenching method. For the fluorescence quenching experiments, the Trp intensities of xanthine oxidase were monitored wavelength of emission from 300 to 400 nm and excitation of 290 nm. The reaction mixture containing 180 μL of 200 mM sodium pyrophosphate/HCl (pH 7.5), 10 μL of isolated isoflavones diluted in DMSO (3.125, 6.25, 12.5, 25.0, and 50.0 μM), and 10 μL of 1 unit/mL xanthine oxidase was placed in black/flat bottom 96-well microplates. […] The quenching parameters such as the Stern–Volmer constant (KSV), binding constant (KA), and the number of binding sites (n) were determined by the Equations (5) and (6). F0 − F = 1 + KSV [Q](5) Log [(F0 − F)/F] = log KA + n log [Q]f(6)

human LDL [3] = assay: TBARS assay of Cu2+ induced LDL oxidation; type: biochemical; settings: for IC50: LDL 500 μg/mL, 10 μM Cu2+, 37 °C, 4 h; for Inhibition Rate: at 10 μM of compound, oxidized LDL induced by Cu2+
Procedure: Thiobarbituric acid reactive substances (TBARS) assay was carried out according to the previous method with minor modifications. The absorbance of a product of a reaction between thiobarbituric acid (TBA) and malondialdehyde (MDA) was measured at 540 nm. First, 220 μL of 500 μg/mL LDL in a buffer (10 mM PBS, pH 7.4), 10 μL of […], and 10 μL of different concentrations from 0 to 3 mM of isoflavones or probucol as a positive control were mixed in 1.5 mL Eppendorf tube and incubated at 37 °C for 4 h. After incubation, 100 μL of trichloroacetic acid (TCA) and 100 μL of 0.67% thiobarbituric acid (TBA)/0.05 N NaOH were added to the reaction mixture and heated in the water bath at 100 °C for 15 min. After heating, the mixture was cooled on the ice and centrifuged for 15 min at 3000 rpm. The absorbance of supernatant was measured and the IC50 values were calculated from the inhibition rate derived from Equation (1).

human LDL [4] = assay: Conjugated diene formation on Cu2+ induced LDL oxidation; type: biochemical; settings: at 10 μM of compound; 234 nm, followed for 180 min
Procedure: The formation of conjugated dienes from oxLDL was assessed by the method. The conjugated diene formation occurred in the clear bottom 96-well plate. The mixture of each well containing 230 μL of 550 μg/mL LDL in the buffer (10 mM PBS, pH 7.4) and 10 μL of 250 μM CuSO4 (final concentration: 10 μM) in the presence or absence of isoflavones or probucol as a positive control (final concentration: 10 μM) were incubated at 37 °C for 4 h. Then, the reaction was screened at 234 nm for 180 min every 5 min, continuously, incubating in the SpectraMax M3 multi-mode microplate reader. In the observed absorbance spectra, the lag time of tested samples was obtained as the endpoint indicated in the lag phase.

human LDL [5] = assay: Relative electrophoretic mobility (REM) of Cu2+ oxidized LDL; type: biochemical; settings: 10 μM compound, 10 μM CuSO4, 16 h
Procedure: The relative electrophoretic mobility (REM) of native LDL and oxidized LDL induced by Cu^2+ was performed according to the procedures of references. Before the electrophoresis, the samples containing 10 μM of CuSO4 and 10 μM of nine isoflavones or probucol were treated into LDL (500 μg/mL), then incubated for 16 h at 37 °C in dark condition. The native LDL and pretreated LDL samples loaded onto 0.5% agarose gel in TAE buffer (40 mM Tris-acetate with 1 mM EDTA, pH 8.0) and electrophoresed for 50 min at 100 V. After the electrophoresis, the gel was fixed in 40% ethanol with 10% acetic acid for 30 min, stained with 0.15% coomassie brilliant blue R250, and LDL bands visualized by using the destaining solution (methanol:acetic acid:water, 3:2:15, v/v).

human LDL [6] = assay: Conjugated diene formation on Cu2+ induced LDL oxidation; type: biochemical
[7] = Dixon plots, read-out: Ki (inhibition constant)
[8] = binding of inhibitor to free enzyme, secondary plot of slope, read-out: KI

Structure (SMILES) | IC50 [1] [µM] | Ki [2, 7] [µM] | Inhibition Mode [2] | KIS [2] [µM] | Ki [2, 8] [µM] | Stern–Volmer constant KSV (xanthine oxidase) [L/mol] | Kd (xanthine oxidase) [µM] | number of binding sites n (xanthine oxidase) | IC50 (human LDL [3]) | Inhibition Rate (human LDL [3]) [%] | Lag Time of conjugated diene formation (human LDL [4]) [min] | Effect on mobility of oxidized LDL (REM) (human LDL [5]) | fold more active than genistein in TBARS assay (human LDL [3]; ratio of TBARS IC50 values versus genistein (IC50 = 30.4 μM)) [fold] | Lag Time of conjugated diene formation (human LDL [6]; 0.3 μM of compound) [min] | Lag Time of conjugated diene formation (human LDL [6]; 0.6 μM of compound) [min] | Lag Time of conjugated diene formation (human LDL [6]; 1.25 μM of compound) [min]
C=CC(C)(C)C1=Cc2c(c(CC=C(C)C)c3occ(-c4ccc(O)c(O)c4)c(=O)c3c2O)OC1(C)C [Compound 5, flemiphilippinin A] | 14.8 | 12.8 | Mixed type I | 26.3 | 12.5 | 55310 | 1.38 | 1.0018 | 2.7 µM and 2.8 µM | 94.1 | > 180 |  |  |  |  | 
CC(C)=CCc1c2c(c(O)c3c(=O)c(-c4ccc(O)c(O)c4)coc13)C=CC(C)(C)O2 [Compound 2, auriculasin] | 12.4 | 11.1 | Mixed type I | 28.1 | 10.8 | 77550 | 1.33 | 1.0359 | 2.4 µM | 95.9 | > 180 |  |  |  |  | 
COc1cc(-c2coc3c(CC=C(C)C)c(O)c(CC=C(C)C)c(O)c3c2=O)ccc1O [Compound 9, flemingsin] | 36.4 | 35.1 | Mixed type I | 49.0 | 35.2 | 9300 | 4.11 | 0.6736 | 14.6 µM | 40.3 | 128 | clearly reduced |  |  |  | 
CC(C)=CCc1c(O)c(CC=C(C)C)c2occ(-c3ccc(O)cc3)c(=O)c2c1O [Compound 7, 8-γ,γ-dimethylallylwighteone] | 16.9 | 11.3 | Mixed type I | 12.9 | 7.2 | 47970 | 1.5 | 0.8836 | 15.2 µM | 38.7 | 124 | clearly reduced |  |  |  | 
CC(C)(Sc1cc(C(C)(C)C)c(O)c(C(C)(C)C)c1)Sc1cc(C(C)(C)C)c(O)c(C(C)(C)C)c1 [Probucol, probucol, reference compound] |  |  |  |  |  |  |  |  | 35.1 µM | 16.4 | 83 |  |  |  |  | 
CC(C)=CCc1cc(-c2coc3cc(O)cc(O)c3c2=O)c(CC=C(C)C)c(O)c1O [Compound 4, 5,7,3′,4′-tetrahydroxy-2′,5′-di(3-methylbut-2-enyl)isoflavone] | 10.9 | 11.5 | Mixed type I | 23.0 | 10.7 | 94970 | 1.12 | 1.4031 | 0.7 µM | 100 | > 180 |  | 40 | 120 | 160 | 180
CC(C)=CCc1c2c(c3occ(-c4ccc(O)cc4)c(=O)c3c1O)C=CC(C)(C)O2 [Compound 8, osajin] | 34.7 | 33.9 | Mixed type I | 52.4 | 35.1 | 9870 | 2.14 | 0.6889 | 24.6 µM | 25.4 | 108 |  |  |  |  | 
CC(C)=CCc1c(-c2coc3cc(O)cc(O)c3c2=O)cc2c(c1O)OC(C)(C)C=C2 [Compound 6, 5,7,3′-trihydroxy-2′-(3-methylbut-2-enyl)-4′,5′-(3,3-dimethylpyrano)isoflavone] | 20.4 | 19.3 | Mixed type I | 40.0 | 18.8 | 36450 | 1.6 | 0.8154 | 10.9 µM | 48.8 |  | clearly reduced |  |  |  | 
O=c1c(-c2ccc(O)cc2)coc2cc(O)cc(O)c12 [Compound 1, genistein] | 25 ± 2.3 | 11.5 | competitive inhibitor |  |  | 18450 | 1.99 | 0.7268 | 30.4 ± 1.5 µM | 20.3 | 80 |  |  |  |  | 
